Test results from patent US20250376461A1, “INDAZOLE DERIVATIVES FOR TREATING TRPM3-MEDIATED DISORDERS” (Katholieke Universiteit Leuven, priority 2022, published 2025).

target: T1, mouse TRPM3α2 (mTRPM3) ion channel (Mus musculus, UniProt J9SQF3); assay: TRPM3 ion channel driven Ca2+ uptake, Fluo-4 AM assay, mTRPM3alpha2 overexpressing flip-in HEK293 cells stimulated with pregnenolone sulfate (50 μM); assay type: cell-based; conditions: mTRPM3 overexpressing HEK293 cells stimulated with pregnenolone sulfate (50 μM), activity ranges A, B, C
T1 construct: expressed in transfected cells; host or cells: flip-in HEK293
T1 sequence (J9SQF3 1-1709 isoform J9SQF3-12): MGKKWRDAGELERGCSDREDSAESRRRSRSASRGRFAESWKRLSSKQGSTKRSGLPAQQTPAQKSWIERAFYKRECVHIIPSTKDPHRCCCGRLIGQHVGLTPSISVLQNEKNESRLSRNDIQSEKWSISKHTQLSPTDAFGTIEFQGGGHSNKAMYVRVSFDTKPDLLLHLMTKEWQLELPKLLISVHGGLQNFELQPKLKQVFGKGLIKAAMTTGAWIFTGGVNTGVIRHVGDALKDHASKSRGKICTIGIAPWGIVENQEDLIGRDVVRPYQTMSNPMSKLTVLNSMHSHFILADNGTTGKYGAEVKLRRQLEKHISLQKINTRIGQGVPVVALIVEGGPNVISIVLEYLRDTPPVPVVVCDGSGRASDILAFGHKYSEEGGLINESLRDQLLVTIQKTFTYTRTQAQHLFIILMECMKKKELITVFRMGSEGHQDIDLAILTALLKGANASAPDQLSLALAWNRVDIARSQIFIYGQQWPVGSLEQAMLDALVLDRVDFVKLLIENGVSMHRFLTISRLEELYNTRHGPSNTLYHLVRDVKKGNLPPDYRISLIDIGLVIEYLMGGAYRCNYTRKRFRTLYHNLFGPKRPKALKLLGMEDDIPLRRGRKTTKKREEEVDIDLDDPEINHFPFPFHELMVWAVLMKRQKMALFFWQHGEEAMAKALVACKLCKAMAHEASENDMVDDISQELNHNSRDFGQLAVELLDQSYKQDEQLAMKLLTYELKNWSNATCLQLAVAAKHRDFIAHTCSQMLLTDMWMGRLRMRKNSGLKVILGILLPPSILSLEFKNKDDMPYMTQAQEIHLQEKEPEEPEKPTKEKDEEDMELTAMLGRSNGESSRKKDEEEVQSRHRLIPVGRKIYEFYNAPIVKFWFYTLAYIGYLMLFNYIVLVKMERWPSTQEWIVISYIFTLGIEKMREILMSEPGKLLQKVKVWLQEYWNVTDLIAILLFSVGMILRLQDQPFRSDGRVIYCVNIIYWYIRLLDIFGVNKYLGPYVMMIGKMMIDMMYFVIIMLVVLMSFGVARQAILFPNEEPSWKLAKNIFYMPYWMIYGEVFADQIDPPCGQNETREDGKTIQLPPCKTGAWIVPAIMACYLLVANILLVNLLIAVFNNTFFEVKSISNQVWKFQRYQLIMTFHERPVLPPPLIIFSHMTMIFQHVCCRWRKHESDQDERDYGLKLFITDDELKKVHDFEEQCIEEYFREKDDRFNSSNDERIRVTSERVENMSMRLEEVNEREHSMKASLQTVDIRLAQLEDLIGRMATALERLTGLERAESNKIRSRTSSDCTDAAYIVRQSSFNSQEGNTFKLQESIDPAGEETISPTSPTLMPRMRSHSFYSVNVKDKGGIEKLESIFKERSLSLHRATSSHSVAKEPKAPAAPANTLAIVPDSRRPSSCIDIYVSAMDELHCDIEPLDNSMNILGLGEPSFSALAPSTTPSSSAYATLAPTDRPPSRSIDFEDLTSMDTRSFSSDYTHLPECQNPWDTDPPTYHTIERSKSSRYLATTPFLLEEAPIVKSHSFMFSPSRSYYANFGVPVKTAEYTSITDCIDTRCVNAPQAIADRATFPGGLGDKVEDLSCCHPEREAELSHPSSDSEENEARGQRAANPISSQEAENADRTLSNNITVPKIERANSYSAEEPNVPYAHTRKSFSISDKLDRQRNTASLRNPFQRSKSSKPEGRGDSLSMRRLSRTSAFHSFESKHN
Method: Monitoring the TRPM3 Ion Channel Driven Ca2+ Uptake.
In order to monitor the inhibition of the mouse TRPM3α2 (mTRPM3) ion channel by the compounds of the invention, a cellular system making use of an mTRPM3alpha2 or hTRPM3 overexpressing cell line (flip-in HEK293) was used. The TRPM3 channel was stimulated/opened with Pregnenolone sulfate (PS) (50 μM) which results in Ca^2+ influx.
For mTRPM3, the intracellular Ca^2+ was measured with a Calcium responsive dye, Fluor-4 AM ester (Invitrogen). Cells were cultured until a confluence of 80-90%, washed with Versene (Invitrogen) and detached from the surface by a short incubation with 0.05% Trypsin (Invitrogen). The trypsination process was stopped by the addition of complete cell culture medium (DMEM, glutamax, 10% FCS, NEAA, Pen-Strep). Cells were collected and resuspended in Krebs buffer without Calcium at RT.
Prior the cell seeding (±2000 cells/well into a black, 384 well plate (Greiner)) the diluted compound was added in the assay plate, together with the PS dissolved in Krebs buffer containing Calcium. […] Directly after cell addition the plates were read on an Envision fluorescence reader (Perkin Elmer) by an Excitation of 485 nm and emission at 535 nm.
Channel inhibition was calculated compared to a non-PS stimulated control versus a condition stimulated with PS (50 μM) with vehicle. The ability of the compounds of the invention to inhibit this activity was determined as: Percentage inhibition=[1−((RFU determined for sample with test compound present−RFU determined for sample with positive control inhibitor) divided by (RFU determined in the presence of vehicle−RFU determined for sample with positive control inhibitor))]*100.
The activities of the Example compounds cpd 001-262 tested are depicted in the table below. All tested compounds show an activity in the Fluo-4 AM assay. The activity ranges A, B and C refer to IC50 values in the Fluo-4 AM assay as follows: “A”: IC50<1 μM; “B”: 1 μM≤IC50≤20 μM and “C”: IC50>20 μM.

| SMILES | IC50 [µM] |
| --- | --- |
| CN(C)C(=O)C(C)(CO)NC(=O)c1c2cc(OCc3cccnc3C(F)(F)F)ccc2nn1C (single isomer, unassigned) [Cpd 193 - En2, 3-hydroxy-N,N,2-trimethyl-2-[(2-methyl-5-{[2-(trifluoromethyl)pyridin-3-yl]methoxy}-2H-indazol-3-yl)formamido]propanamide] | > 20 |
| Cn1nc2ccc(OCc3ccccc3F)cc2c1C(=O)NC(C)(CO)C(N)=O (single isomer, unassigned) [Cpd 194 - En1] | < 1 |
| Cn1nc2ccc(OCc3ccccc3F)cc2c1C(=O)NC(C)(CO)C(N)=O (single isomer, unassigned) [Cpd 194 - En2] | < 1 |
| Cc1ncc(COc2ccc3nn(C(C)C)c(C(=O)NC(C)(CO)C(N)=O)c3c2)s1 (single isomer, unassigned) [Cpd 195 - En1] | > 20 |
| Cc1ncc(COc2ccc3nn(C(C)C)c(C(=O)NC(C)(CO)C(N)=O)c3c2)s1 (single isomer, unassigned) [Cpd 195 - En2] | < 1 |
| Cn1nc2ccc(OCc3ccccn3)cc2c1C(=O)NC(C)(CO)CC(F)F (single isomer, unassigned) [Cpd 201 - En1, N-(4,4-difluoro-1-hydroxy-2-methylbutan-2-yl)-2-methyl-5-[(pyridin-2-yl)methoxy]-2H-indazole-3-carboxamide] | < 1 |
| Cn1nc2ccc(OCc3ccccn3)cc2c1C(=O)NC(C)(CO)CC(F)F (single isomer, unassigned) [Cpd 201 - En2, N-(4,4-difluoro-1-hydroxy-2-methylbutan-2-yl)-2-methyl-5-[(pyridin-2-yl)methoxy]-2H-indazole-3-carboxamide] | < 1 |
| Cn1nc2ccc(OCc3cccnc3C(F)(F)F)cc2c1C(=O)NC(C)(CO)CC(F)F (single isomer, unassigned) [Cpd 202 - En1] | < 1 |
| Cn1nc2ccc(OCc3cccnc3C(F)(F)F)cc2c1C(=O)NC(C)(CO)CC(F)F (single isomer, unassigned) [Cpd 202 - En2] | < 1 |
| Cn1nc2ccc(OCc3ccccc3F)cc2c1C(=O)NC(C)(CO)CC(F)F (single isomer, unassigned) [Cpd 203 - En1] | < 1 |
| Cn1nc2ccc(OCc3ccccc3F)cc2c1C(=O)NC(C)(CO)CC(F)F (single isomer, unassigned) [Cpd 203 - En2] | < 1 |
| Cc1ncsc1COc1ccc2nn(C)c(C(=O)NC3CNCCC3(F)F)c2c1 (single isomer, unassigned) [Cpd 211 - En1, N-(4,4-difluoropiperidin-3-yl)-2-methyl-5-[(4-methyl-1,3-thiazol-5-yl)methoxy]-2H-indazole-3-carboxamide] | 1 to 20 |
| Cc1ncsc1COc1ccc2nn(C)c(C(=O)NC3CNCCC3(F)F)c2c1 (single isomer, unassigned) [Cpd 211 - En2, N-(4,4-difluoropiperidin-3-yl)-2-methyl-5-[(4-methyl-1,3-thiazol-5-yl)methoxy]-2H-indazole-3-carboxamide] | < 1 |
| Cn1nc2ccc(OCc3ccccn3)cc2c1C(=O)NC1CNCCC1(F)F (single isomer, unassigned) [Cpd 212 - En1, N-(4,4-difluoropiperidin-3-yl)-2-methyl-5-[(pyridin-2-yl)methoxy]-2H-indazole-3-carboxamide] | 1 to 20 |
| Cn1nc2ccc(OCc3ccccn3)cc2c1C(=O)NC1CNCCC1(F)F (single isomer, unassigned) [Cpd 212 - En2, N-(4,4-difluoropiperidin-3-yl)-2-methyl-5-[(pyridin-2-yl)methoxy]-2H-indazole-3-carboxamide] | > 20 |
| Cc1ncsc1COc1ccc2nn(C)c(C(=O)NC3CNCC(F)(F)C3)c2c1 (single isomer, unassigned) [Cpd 213 - En1] | 1 to 20 |
| Cc1ncsc1COc1ccc2nn(C)c(C(=O)NC3CNCC(F)(F)C3)c2c1 (single isomer, unassigned) [Cpd 213 - En2] | > 20 |
| Cn1nc2ccc(OCc3ccccn3)cc2c1C(=O)NC1CNCC(F)(F)C1 (single isomer, unassigned) [Cpd 214 - En1] | > 20 |
| Cn1nc2ccc(OCc3ccccn3)cc2c1C(=O)NC1CNCC(F)(F)C1 (single isomer, unassigned) [Cpd 214 - En2] | 1 to 20 |
| Cc1ncsc1COc1ccc2nn(C)c(C(=O)NC3CCNC3)c2c1 (single isomer, unassigned) [Cpd 215 - En1] | > 20 |
| Cc1ncsc1COc1ccc2nn(C)c(C(=O)NC3CCNC3)c2c1 (single isomer, unassigned) [Cpd 215 - En2] | 1 to 20 |
| Cn1nc2ccc(OCc3ccccn3)cc2c1C(=O)NC1CCNC1 (single isomer, unassigned) [Cpd 216 - En1] | > 20 |

| SMILES | IC50 [µM] |
| --- | --- |
| Cn1nc2ccc(OCc3ccccn3)cc2c1C(=O)NC1CCNC1 (single isomer, unassigned) [Cpd 216 - En2] | 1 to 20 |
| Cn1nc2ccc(OCc3ccccn3)cc2c1C(=O)NC(CO)c1ccc(F)cc1 (single isomer, unassigned) [Cpd 220 - En1] | > 20 |
| Cn1nc2ccc(OCc3ccccn3)cc2c1C(=O)NC(CO)c1ccc(F)cc1 (single isomer, unassigned) [Cpd 220 - En2] | > 20 |
| Cn1nc2ccc(OCc3ccccn3)cc2c1C(=O)NC(CO)c1ccccn1 (single isomer, unassigned) [Cpd 221 - En1] | 1 to 20 |
| Cn1nc2ccc(OCc3ccccn3)cc2c1C(=O)NC(CO)c1ccccn1 (single isomer, unassigned) [Cpd 221 - En2] | 1 to 20 |
| Cn1nc2ccc(OCc3ccccn3)cc2c1C(=O)NC(CCO)c1ccc(F)cc1 (single isomer, unassigned) [Cpd 223 - En1] | > 20 |
| Cn1nc2ccc(OCc3ccccn3)cc2c1C(=O)NC(CCO)c1ccc(F)cc1 (single isomer, unassigned) [Cpd 223 - En2] | > 20 |
| Cn1nc2ccc(OCc3ccccn3)cc2c1C(=O)NC(CO)CC(F)(F)F (single isomer, unassigned) [Cpd 226-En1] | < 1 |
| Cn1nc2ccc(OCc3ccccn3)cc2c1C(=O)NC(CO)CC(F)(F)F (single isomer, unassigned) [Cpd 226-En2] | > 20 |
| Cn1nc2ccc(OCc3ccccn3)cc2c1C(=O)NC(CO)C(C(F)(F)F)C(F)(F)F (single isomer, unassigned) [Cpd 227 - En1] | < 1 |
| Cn1nc2ccc(OCc3ccccn3)cc2c1C(=O)NC(CO)C(C(F)(F)F)C(F)(F)F (single isomer, unassigned) [Cpd 227 - En2] | > 20 |
| Cn1nc2ccc(OCc3ccccn3)cc2c1C(=O)NC(CO)CC(F)F (single isomer, unassigned) [Cpd 228 - En1] | < 1 |
| Cn1nc2ccc(OCc3ccccn3)cc2c1C(=O)NC(CO)CC(F)F (single isomer, unassigned) [Cpd 228 - En2] | > 20 |
| CN(C)CC(C)(CC(F)F)NC(=O)c1c2cc(OCc3ccccn3)ccc2nn1C (single isomer, unassigned) [Cpd 229 - En1, N-[1-(dimethylamino)-4,4-difluoro-2-methylbutan-2-yl]-2-methyl-5-[(pyridin-2-yl)methoxy]-2H-indazole-3-carboxamide] | 1 to 20 |
| CN(C)CC(C)(CC(F)F)NC(=O)c1c2cc(OCc3ccccn3)ccc2nn1C (single isomer, unassigned) [Cpd 229 - En2, N-[1-(dimethylamino)-4,4-difluoro-2-methylbutan-2-yl]-2-methyl-5-[(pyridin-2-yl)methoxy]-2H-indazole-3-carboxamide] | > 20 |
| COCC(C)(CC(F)F)NC(=O)c1c2cc(OCc3ccccn3)ccc2nn1C (single isomer, unassigned) [Cpd 230 - En1] | > 20 |
| COCC(C)(CC(F)F)NC(=O)c1c2cc(OCc3ccccn3)ccc2nn1C (single isomer, unassigned) [Cpd 230 - En2] | 1 to 20 |
| CC(=O)C(C)(CO)NC(=O)c1c2cc(OCc3ccccn3)ccc2nn1C (single isomer, unassigned) [Cpd 232 - En1] | 1 to 20 |
| CC(=O)C(C)(CO)NC(=O)c1c2cc(OCc3ccccn3)ccc2nn1C (single isomer, unassigned) [Cpd 232 - En2] | < 1 |
| Cn1nc2ccc(OCc3ccccn3)cc2c1C(=O)NC1(CO)CC1(F)F (single isomer, unassigned) [Cpd 235 - En1, N-[2,2-difluoro-1-(hydroxymethyl)cyclopropyl]-2-methyl-5-[(pyridin-2-yl)methoxy]-2H-indazole-3-carboxamide] | > 20 |
| Cn1nc2ccc(OCc3ccccn3)cc2c1C(=O)NC1(CO)CC1(F)F (single isomer, unassigned) [Cpd 235 - En2, N-[2,2-difluoro-1-(hydroxymethyl)cyclopropyl]-2-methyl-5-[(pyridin-2-yl)methoxy]-2H-indazole-3-carboxamide] | 1 to 20 |
